Entries after “also recorded” stand apart in the source; their conditions may differ.
Experiments:
Type in all cases: cell-based
[1] = test system: Aspergillus niger ATCC 16404 spores; assay: Sporicidal effect of test compounds and preservatives in a cosmetic cream; details: for Enhancing effect in the cosmetic cream in presence of phenoxyethanol: 0.2% test compound with phenoxyethanol; for Enhancing activity in cream: 0.1% test compound with phenoxyethanol, complete killing of spores within 7 days
Description: A cosmetic cream (pH 5.5) for application to the human skin is formulated as follows (in % w/w): […]
Glyceryl-monostearate, Sweet almond oil, Cetyl-stearyl-alcohol and Glyceryl dilaurate are melted at 80° C. Xanthan gum is dispersed into glycerine. Arginine is dissolved in water and heated to 75° C. The Xanthan gum-glycerin suspension is added to the heated water phase, the heated oil phase is added and the suspension is stirred at 300 rpm for 10 min whilst being cooled down slowly. Finally, a homogeneous emulsion is made with a high speed homogenizer at 5000 rpm.
Test samples of cream contain different amounts of preservatives and/or preservative enhancer. The preservative and preservative enhancer is added to an aliquot of 10 g of the cream in 50 ml tubes to a concentration (w/w) of 0.1-0.5% as shown in the table below. After addition of the preservative/preservative enhancer, the cream is thoroughly mixed to achieve a homogeneous distribution.
After 1-3 days of equilibration of the cream (storage at room temperature to achieve a homogenous partitioning of compounds between oil and water phase), to each sample 100 μl of a spore suspension of Aspergillus niger ATCC 16404 containing 3×10^7 spores/ml (prepared as described in example 1) is added. After regular test intervals, samples of 1 g cream are removed and added to 20 ml of a neutralizer solution containing 0.2% lecithin, 2% Tween 80 and 0.5% NaCl. These dilutions are vigorously shaken for 10 min until the cream is dissolved, and then aliquots of this solution are spread plated on potato dextrose agar containing 0.2% Tween 80. After 48 h to 72 h the number of surviving colony forming units (and therefore surviving spores) are counted.
The sporidical effect in cream (prepared as described in example 2) is compared when using the test compounds alone or in combination with phenoxyethanol, benzyl alcohol or 2-Phenylethanol.
The experiments described in example 2-4 are performed with varying concentrations of test compound and preservative as indicated in Table 5.

[2] = test system: Aspergillus niger ATCC 16404 spores; assay: Sporicidal effect of test compounds in water; details: for Reduction factor / Spores/ml: 0.1% test compound in water; for Reduction factor: after 7 days, count of negative control divided by count of test compound; for Spores/ml: spore count after 7 days; for Sporicidal effect (reduction of spore counts) in water: test compound alone in water at 0.1%
Description: Aspergillus niger ATCC 16404 spores are added to water to obtain a density of 3×10^5 spores/ml. In order to prepare the spores, the test strain is grown for 5 days on potato dextrose agar at room temperature. The spores are harvested with a solution containing 0.1% Tween 80, peptone 0.1% and NaCl 0.85% and the spore concentration is adjusted to the density indicated above.
Test compounds are dissolved in dipropyleneglycol to a concentration of 20%.
These stock solutions are added to 10 ml aliquots of the spore suspension to obtain a final concentration of the test compounds of 0.1%. The sporicidal effect is shown by a reduction of spore counts after 7 days.
The reduction factor is determined as follows. Aliquots of the above prepared suspension of microorganisms (here: spore suspension prepared as described above) are plated on a suitable agar medium (see above) and the developing colonies are counted both for samples with test compound and for a negative probe (water). The count of the negative control is divided by the count of the test compound and thereby the reduction factor is determined. A negative control (water) accordingly has a reduction factor of 1 (no effect on the microorganism).

[3] = test system: Staphylococcus aureus (DSMZ 799) and Pseudomonas aeruginosa (ATCC 15442); assay: Activity against bacteria in cosmetic cream (mixed inoculum 1:1)
Description: As test organisms Staphylococcus aureus (DSMZ 799) and Pseudomonas aeruginosa (ATCC 15442) are used. The strains are grown overnight in Mueller-Hinton broth and adjusted to a cell density of 1×10^8 cfu (colony forming units) per ml.
The two bacterial strains are mixed in a ratio of 1:1 and 100 μl of this mixed inoculum is added to 10 ml aliquots of the cosmetic cream supplemented with test compounds as described in Example 2 in the concentration as indicated in the table below.
The resulting mixtures are incubated at room temperature and at the regular intervals samples are removed, suspended in neutralizer solution and diluted as described above (example 2).
Aliquots of these suspended and diluted samples are plated on tryptic soy agar supplemented with 0.5% Tween 80 and then incubated for 24 h at 37° C. Surviving bacteria are counted.

[4] = test system: Candida albicans ATCC 10231, Candida guilliermondii ATCC 6260 and Candida parapsilosis ATCC 22019; assay: Activity against yeasts in cosmetic cream (mixture of three yeast strains 1:1:1)
Description: The same procedure as described above except for the changes mentioned below is performed with a mixture of the three yeast strains Candida albicans ATCC 10231, Candida guilliermondii ATCC 6260 and Candida parapsilosis ATCC 22019 that replace the bacterial strains.
The yeast strains are grown in Sabouraud liquid medium, washed and suspended in saline and adjusted to 5×10^7 cfu (colony forming units) per ml. The Inoculum of the three strains is then pooled in a ratio of 1:1:1. For determining the reduction factor by counting of the colonies formed, the samples inoculated with the yeast strains are spread plated on potato dextrose, incubated until colonies have formed and counted.

[5] = 0.1% test compound and 0.5% phenoxyethanol (Table 2)
[6] = 0.1% test compound and 0.5% phenoxyethanol, 7 d (Table 2)
[7] = 0.2% test compound and 0.5% phenoxyethanol (Table 2)
[8] = 0.2% test compound and 0.5% phenoxyethanol, 7 d (Table 2)
[9] = test compound (0.1% where given) with Phenoxyethanol 0.5% (Table 3)
[10] = test compound (0.1% where given) with Phenoxyethanol 0.5%, 7 d (Table 3)
[11] = test compound alone (0.1% where given), no preservative (Table 3)
[12] = test compound alone (0.1% where given), no preservative, 7 d (Table 3)
[13] = test compound 0.1% with 2-Phenylethanol 0.5%
[14] = test compound 0.1% alone, no preservative
[15] = test compound 0.1% with Phenoxyethanol 0.5%

In the case of `OCCc1ccccc1` [2-Phenylethanol, reference compound], the “Spores/ml after 7 d” value ([1]; preservative 0.5% alone, no test compound (Table 3)) is reported as 4.2 × 10^4 Spores/ml and the Reduction factor ([1]; preservative 0.5% alone, no test compound, 7 d (Table 3)) is reported as 2.5.
In the case of `O=Cc1cccc(O)c1` [3-hydroxybenzaldehyde], the “Spores/ml after 7 d” value [1, 5] is reported as less than 100 Spores/ml and the Reduction factor [1, 6] is reported as greater than 737.
In the case of `Cc1ccc(C=O)cc1` [4-methylbenzaldehyde], the “Spores/ml after 7 d” value [1, 5] is reported as less than 100 Spores/ml and the Reduction factor [1, 6] is reported as greater than 737.
`C=CCCCCCCCCO` [9-decen-1-ol, reference compound] was tested, and the Reduction factor [2] was 23, the Spores/ml [2] was 1.1 × 10^4 Spores/ml and the “Sporicidal effect (reduction of spore counts) in water” value [2] was “significant sporicidal effect”. The “Spores/ml after 7 d” value [1, 7] was 2.44 × 10^4 Spores/ml, the Reduction factor [1, 8] was 2.1 and the “Enhancing effect in the cosmetic cream in presence of phenoxyethanol” value [1] was “do not show an enhancing effect”.
`O=Cc1cc(O)cc(O)c1` [3,5-dihydroxybenzaldehyde] was tested, and the “Spores/ml after 7 d” value [1, 9] was less than 100 Spores/ml, the Reduction factor [1, 10] was greater than 1040 and the “Spores/ml after 7 d” value [1, 11] was 1 × 10^4 Spores/ml. It also gave a Reduction factor [1, 12] of 10.
With `COc1cc(O)ccc1C=O` [4-hydroxy-2-methoxy-benzaldehyde] the “Spores/ml after 7 d” value [1, 9] was less than 100 Spores/ml, the Reduction factor [1, 10] was greater than 1040 and the “Spores/ml after 7 d” value [1, 11] was 2.08 × 10^4 Spores/ml. For the same molecule, the Reduction factor [1, 12] was 5.
In the case of `COc1cccc(C=O)c1` [3-methoxybenzaldehyde], the “Spores/ml after 7 d” value [1, 5] is reported as less than 100 Spores/ml and the Reduction factor [1, 6] is reported as greater than 737.
In the case of `O=Cc1ccc(O)cc1` [4-hydroxybenzaldehyde], the Reduction factor [2] is reported as less than 2, the Spores/ml [2] is reported as >1.2 × 10^5 Spores/ml and the “Sporicidal effect (reduction of spore counts) in water” value [2] is reported as “no significant sporicidal effect; also recorded: No significant reduction of spore counts”. The “Spores/ml after 7 d” value [1, 5] was less than 100 Spores/ml, the Reduction factor [1, 6] was greater than 737 and the “Enhancing activity in cream” value [1] was “excellent enhancing activity”. For the same molecule, the “Reduction factor A. niger, 7 d” value ([1]; test compound 0.05% w/w with preservative (phenoxyethanol) 0.5% w/w (Table 5)) was 66, the “Reduction factor A. niger, 7 d” value ([1]; test compound 0.1% w/w with preservative (phenoxyethanol) 0.3% w/w (Table 5)) was 295 and the “Reduction factor A. niger, 7 d” value ([1]; test compound 0.1% w/w with preservative (phenoxyethanol) 0.5% w/w (Table 5)) was greater than 1180. For the same molecule, the “Reduction factor A. niger, 7 d” value ([1]; test compound 0.1% w/w, preservative 0 (Table 5)) was 2, the “Spores/ml after 7 d” value ([1]; test compound 0.1% with 2-Phenylethanol 0.25% + benzylalcohol 0.25%) was less than 100 Spores/ml and the Reduction factor ([1]; test compound 0.1% with 2-Phenylethanol 0.25% + benzylalcohol 0.25%, 7 d) was greater than 1040. The “Spores/ml after 7 d” value [1, 13] was less than 100 Spores/ml, the “Spores/ml after 7 d” value ([1]; test compound 0.1% with 2-Phenylethanol 0.5% + benzylalcohol 0.5%) was less than 100 Spores/ml and the Reduction factor ([1]; test compound 0.1% with 2-Phenylethanol 0.5% + benzylalcohol 0.5%, 7 d) was greater than 1040. The Reduction factor ([1]; test compound 0.1% with 2-Phenylethanol 0.5%, 7 d) was greater than 1040, the “Spores/ml after 7 d” value [1, 9] was less than 100 Spores/ml and the Reduction factor [1, 10] was greater than 1040. For the same molecule, the “Spores/ml after 7 d” value [1, 11] was 1.0 × 10^5 Spores/ml, the Reduction factor [1, 12] was 1.04 and the “Enhancing effect of the test compound in presence of the preservative compound (phenoxyethanol)” value ([1]; varying concentrations (Table 5)) was “enhancing effect”. For the same molecule, the “Bacteria (cfu/g cream) 24 h” value [3, 14] was 3.8 × 10^3 cfu/g cream, the “Bacteria (cfu/g cream) 7 d” value [3, 14] was 1.28 × 10^4 cfu/g cream and the “Bacteria (cfu/g cream) 24 h” value [3, 13] was 1 × 10^3 cfu/g cream. The “Bacteria (cfu/g cream) 7 d” value [3, 13] was less than 200 cfu/g cream, the “Bacteria (cfu/g cream) 24 h” value [3, 15] was 1.9 × 10^4 cfu/g cream and the “Bacteria (cfu/g cream) 7 d” value [3, 15] was less than 200 cfu/g cream. The “Yeasts (cfu/g cream) 48 h” value [4, 14] was 7.4 × 10^3 cfu/g cream, the “Yeasts (cfu/g cream) 7 d” value [4, 14] was 2.2 × 10^5 cfu/g cream and the “Yeasts (cfu/g cream) 48 h” value [4, 13] was less than 200 cfu/g cream. The “Yeasts (cfu/g cream) 7 d” value [4, 13] was less than 200 cfu/g cream, the “Yeasts (cfu/g cream) 48 h” value [4, 15] was less than 200 cfu/g cream and the “Yeasts (cfu/g cream) 7 d” value [4, 15] was less than 200 cfu/g cream.
For `O=Cc1ccccc1` [Benzaldehyde, reference compound], the “Spores/ml after 7 d” value [1, 5] was less than 100 Spores/ml and the Reduction factor [1, 6] was greater than 737.
For `CC(CC=O)CCc1ccccc1` (centres unmarked) [Mefranal, 3-methyl-5-phenylpentanal, reference compound], the Reduction factor [2] was 63, the Spores/ml [2] was 4 × 10^3 Spores/ml and the “Sporicidal effect (reduction of spore counts) in water” value [2] was “significant sporicidal effect”. For the same molecule, the “Spores/ml after 7 d” value [1, 7] was 3.12 × 10^4 Spores/ml, the Reduction factor [1, 8] was 1.6 and the “Enhancing effect in the cosmetic cream in presence of phenoxyethanol” value [1] was “do not show an enhancing effect”.
`COc1ccc(C=O)cc1` [4-methoxybenzaldehyde] was tested, and the Reduction factor [2] was 5, the Spores/ml [2] was 4.68 × 10^4 Spores/ml and the “Sporicidal effect (reduction of spore counts) in water” value [2] was “No significant reduction of spore counts”. For the same molecule, the “Sporicidal effect (reduction of spore counts) in water” value ([2]; listed as 4-methoxy-benzaldehyde) was “no significant sporicidal effect”, the “Spores/ml after 7 d” value [1, 5] was less than 100 Spores/ml and the Reduction factor [1, 6] was greater than 737. The “Enhancing activity in cream” value [1] was “excellent enhancing activity”, the “Spores/ml after 7 d” value [1, 7] was less than 100 Spores/ml and the Reduction factor [1, 8] was greater than 737. For the same molecule, the “Spores/ml after 7 d” value [1, 9] was less than 100 Spores/ml, the Reduction factor [1, 10] was greater than 1040 and the “Spores/ml after 7 d” value [1, 11] was 2.8 × 10^3 Spores/ml. The Reduction factor [1, 12] was 37.1.
`CC(C)c1ccc(CO)cc1` [Cuminic alcohol, reference compound] was tested, and the Reduction factor [2] was less than 2 and the Spores/ml [2] was >1.2 × 10^5 Spores/ml.
`COc1cc(C=O)ccc1O` [Vanilline] was tested, and the “Spores/ml after 7 d” value [1, 5] was less than 100 Spores/ml, the Reduction factor [1, 6] was greater than 737 and the “Spores/ml after 7 d” value [1, 9] was less than 100 Spores/ml. The Reduction factor [1, 10] was greater than 1040, the “Spores/ml after 7 d” value [1, 11] was 1 × 10^4 Spores/ml and the Reduction factor [1, 12] was 10.4.
With `O=Cc1ccc2c(c1)OCO2` [Heliotropine] the “Spores/ml after 7 d” value [1, 5] was less than 100 Spores/ml and the Reduction factor [1, 6] was greater than 737.
